Source: patent US20120258974A1, “USE OF A2B ADENOSINE RECEPTOR ANTAGONISTS FOR TREATING HEART FAILURE AND ARRHYTHMIA IN POST-MYOCARDIAL INFARCTION PATIENTS” (GILEAD SCIENCES, INC., priority 2011, published 2012)

How the values were obtained:
[1] = system: primary human cardiac fibroblasts (HCF); experiment: NECA-induced release of IL-6, collagen, ST-2, PAPPA and expression of fibrotic markers in human cardiac fibroblasts (Example 2); format: cell-based; settings: antagonist with NECA
Protocol: Real-time RT-PCR was performed as published using Stratagene PCR equipment (La Jolla, Calif.). Zhong H., et al., “A2B adenosine receptors increase cytokine release by bronchial smooth muscle cells,” American Journal of Respiratory Cell and Molecular Biology, 30(1): 118-125 (2004).
Expression of AdoR, α-smooth muscle actin and α-1 pro-collagen was determined using real-time RT-PCR. The concentration of IL-6, soluble ST-2 and PAPPA (Pregnancy-associated plasma protein A) in the cell supernatants were measured using ELISA, and the concentration of soluble collagen were determined using Sircol™ collagen assay.

[2] = system: male mice with permanent coronary artery ligation; experiment: Mouse model of myocardial infarction: ECHO, plasma biomarkers, mortality (Example 5); format: in vivo
Protocol: The effect of Compound A in a mouse model of myocardial infarction was also determined. Male mice underwent permanent coronary artery ligation or sham surgery. Compound A (4 mg/kg) was given i.p. BID starting immediately or 1 hr after the surgery and continued for 14 days. Trans-thoracic ECHO to measure LV end-diastolic/systolic diameter (LVEDD or LVESD), RV end-diastolic area (RVEDA) and myocardial performance index (MPI) was performed prior to surgery and after 7, 14 and 28 days. Analysis of biomarkers of tissue inflammation and injury was conducted on 28 days post-MI.

[3] = system: rats with MI (25 minutes coronary occlusion followed by reperfusion); experiment: Histology of fibrosis in the infarct border zone, rat post-MI model (Example 6); format: in vivo; settings: 5 week post-MI; Sirius red; vs vehicle control
Protocol: The effects of Compound A in a rat model of post-MI remodeling and VT were determined. MI was caused by 25 minutes occlusion at the left anterior descending coronary ligation followed by reperfusion. One week later, rats were administered either vehicle or Compound A (100 mg/kg) once daily by oral gavage. Serial echocardiograms (ECHOs) to measure LV ejection fraction (LVEF), stroke volume and LV end systolic volume (LVESV) were obtained at baseline, 1 week and 5 week post-MI. Electrophysiological studies, optical mapping, histology and biomarker analysis were conducted at 5 week post-MI.
Abnormal conduction in the IBZ is due to tissue remodeling. Excessive fibrosis in the IBZ is an important substrate for VT vulnerability.

[4] = system: CD1 mice with experimental AMI (permanent coronary artery ligation); experiment: Survival after coronary artery ligation surgery (Example 4); format: in vivo, mouse; settings: P=0.14; vehicle 50%
Protocol: Adult out-bred male CD1 mice (8-12 weeks of age) were supplied by Harlan Sprague Dawley (Indianapolis, Ind.). The experiments were conducted under the guidelines of laboratory animals for biomedical research published by National Institutes of Health (No. 85-23, revised 1996). The study protocol was approved by the Virginia Commonwealth University Institutional Animal Care and Use Committee. Experimental AMI was induced by permanent coronary artery ligation in order to induce a large non-reperfused infarct involving approximately 30% of the left ventricle and leading to an ischemic dilated cardiomyopathy (Mezzaroma et al. Proc Natl Acad Sci 2011—in press and Abbate et al. Circulation 2008; 117:2670-83). Briefly, mice were orotracheally intubated under anesthesia (pentobarbital 50 to 70 mg/kg), placed in the right lateral decubitus position, then subjected to a left thoracotomy, pericardiectomy, and ligation of the proximal left coronary artery. The chest was closed and the animals were allowed to recover. […]
Differences between the groups were analyzed using the one-way ANOVA followed by Bonferroni test. Changes in repeated measures of echocardiographic data were analyzed using the random effects ANOVA for repeated-measures to determine the main effect of time, group, and time-by-group interaction. […]

[5] = mice with MI, 4 mg/kg i.p. BID starting immediately or 1 hr after the surgery
[6] = mice with MI, day 28 post-MI, treatment immediately after surgery

CCCn1c(=O)c2[nH]c(-c3cnn(Cc4cccc(C(F)(F)F)c4)c3)nc2n(CC)c1=O [Compound A, 3-ethyl-1-propyl-8-(1-(3-(trifluoromethyl)benzyl)-1H-pyrazol-4-yl)-1H-purine-2,6(3H,7H)-dione]
effect of NECA on expression of α-1 pro-collagen [1]: completely abolished | effect of NECA on expression of α-smooth muscle actin [1]: completely abolished | effect of NECA on release of IL-6 [1]: completely abolished | effect of NECA on release of PAPPA [1]: completely abolished | effect of NECA on release of ST-2 [1]: completely abolished | effect of NECA on release of collagen [1]: completely abolished | mortality rate (printed: morality rate) of mice with MI during the 4 weeks ([2]; 4 mg/kg i.p. BID for 14 days, vehicle 42%): 25% | increase of plasma level of sE-selectin ([2]; mice with MI): significantly inhibited | increase of plasma level of sICAM ([2]; mice with MI): significantly inhibited | increase of plasma level of sVCAM ([2]; mice with MI): significantly inhibited | LV/RV dimensions (LVEDD, LVESD, RVEDA) [2, 5]: significantly reduced | MPI [2, 5]: reduced | plasma concentration of IL-6 [2, 6]: significantly reduced | plasma concentration of ST2 [2, 6]: significantly reduced | plasma concentration of TNF-α [2, 6]: significantly reduced | myocardial remodeling/function in sham mice ([2]; sham mice): no effect | plasma biomarkers in sham-operated mice ([2]; sham-operated mice): no effect | fibrosis in the IBZ [3]: inhibited | mice alive at 28 days after coronary artery ligation surgery [4]: 75%
